Laboratory results reported in BigSolDB 2.1.

## O=C(O)c1ccccc1C(=O)O
In DMAc, 295.05 K
  solubility (mole fraction): 0.163
In DMAc, 296.15 K
  solubility (mole fraction): 0.168
In DMAc, 298.35 K
  solubility (mole fraction): 0.18
In DMAc, 301.15 K
  solubility (mole fraction): 0.193
In DMAc, 302.95 K
  solubility (mole fraction): 0.201
In DMAc, 305.05 K
  solubility (mole fraction): 0.211
In DMAc, 306.35 K
  solubility (mole fraction): 0.22
In DMAc, 308.15 K
  solubility (mole fraction): 0.229
In DMAc, 309.25 K
  solubility (mole fraction): 0.238
In DMAc, 310.65 K
  solubility (mole fraction): 0.249
In DMAc, 312.15 K
  solubility (mole fraction): 0.258
In DMAc, 313.15 K
  solubility (mole fraction): 0.268
In DMAc, 314.35 K
  solubility (mole fraction): 0.276
In DMAc, 316.05 K
  solubility (mole fraction): 0.286
In DMAc, 316.65 K
  solubility (mole fraction): 0.295
In DMAc, 318.15 K
  solubility (mole fraction): 0.305
In DMAc, 319.15 K
  solubility (mole fraction): 0.314
In DMAc, 321.15 K
  solubility (mole fraction): 0.323
In DMAc, 323.15 K
  solubility (mole fraction): 0.334
In DMAc, 325.05 K
  solubility (mole fraction): 0.343
In DMAc, 326.85 K
  solubility (mole fraction): 0.353
In DMAc, 328.15 K
  solubility (mole fraction): 0.362
In DMAc, 329.35 K
  solubility (mole fraction): 0.373
In DMAc, 330.35 K
  solubility (mole fraction): 0.381
In DMAc, 331.25 K
  solubility (mole fraction): 0.389
In DMAc, 331.95 K
  solubility (mole fraction): 0.396
In DMAc, 333.15 K
  solubility (mole fraction): 0.405
In DMAc, 333.95 K
  solubility (mole fraction): 0.415
In DMAc, 334.95 K
  solubility (mole fraction): 0.427
In DMF, 304.15 K
  solubility (mole fraction): 0.399
In DMF, 309.15 K
  solubility (mole fraction): 0.42
In DMF, 311.05 K
  solubility (mole fraction): 0.426
In DMF, 314.65 K
  solubility (mole fraction): 0.435
In DMF, 316.75 K
  solubility (mole fraction): 0.441
In DMF, 319.15 K
  solubility (mole fraction): 0.446
In DMF, 323.35 K
  solubility (mole fraction): 0.464
In DMF, 326.15 K
  solubility (mole fraction): 0.476
In DMF, 328.65 K
  solubility (mole fraction): 0.481
In DMF, 330.75 K
  solubility (mole fraction): 0.491
In DMF, 332.45 K
  solubility (mole fraction): 0.499
In DMF, 335.35 K
  solubility (mole fraction): 0.509
In DMF, 338.25 K
  solubility (mole fraction): 0.516
In DMF, 342.15 K
  solubility (mole fraction): 0.528
In DMSO, 291.55 K
  solubility (mole fraction): 0.333
In DMSO, 304.25 K
  solubility (mole fraction): 0.344
In DMSO, 306.25 K
  solubility (mole fraction): 0.348
In DMSO, 309.65 K
  solubility (mole fraction): 0.352
In DMSO, 313.65 K
  solubility (mole fraction): 0.354
In DMSO, 317.25 K
  solubility (mole fraction): 0.357
In DMSO, 321.65 K
  solubility (mole fraction): 0.362
In DMSO, 324.15 K
  solubility (mole fraction): 0.364
In DMSO, 328.15 K
  solubility (mole fraction): 0.368
In DMSO, 331.35 K
  solubility (mole fraction): 0.37
In DMSO, 335.15 K
  solubility (mole fraction): 0.373
In DMSO, 339.65 K
  solubility (mole fraction): 0.378
In DMSO, 342.15 K
  solubility (mole fraction): 0.38
In NMP, 293.55 K
  solubility (mole fraction): 0.0649
In NMP, 298.35 K
  solubility (mole fraction): 0.0801
In NMP, 303.25 K
  solubility (mole fraction): 0.0925
In NMP, 305.15 K
  solubility (mole fraction): 0.0988
In NMP, 307.95 K
  solubility (mole fraction): 0.105
In NMP, 310.15 K
  solubility (mole fraction): 0.116
In NMP, 314.05 K
  solubility (mole fraction): 0.128
In NMP, 319.25 K
  solubility (mole fraction): 0.147
In NMP, 321.65 K
  solubility (mole fraction): 0.158
In NMP, 325.15 K
  solubility (mole fraction): 0.173
In NMP, 327.25 K
  solubility (mole fraction): 0.184
In NMP, 330.15 K
  solubility (mole fraction): 0.202
In NMP, 333.25 K
  solubility (mole fraction): 0.219
In acetonitrile, 296.95 K
  solubility (mole fraction): 0.0247
In acetonitrile, 302.05 K
  solubility (mole fraction): 0.0282
In acetonitrile, 308.25 K
  solubility (mole fraction): 0.0323
In acetonitrile, 314.65 K
  solubility (mole fraction): 0.0367
In acetonitrile, 318.35 K
  solubility (mole fraction): 0.039
In acetonitrile, 321.15 K
  solubility (mole fraction): 0.0402
In acetonitrile, 323.35 K
  solubility (mole fraction): 0.0417
In acetonitrile, 325.15 K
  solubility (mole fraction): 0.0429
In acetonitrile, 327.15 K
  solubility (mole fraction): 0.0443
In acetonitrile, 329.15 K
  solubility (mole fraction): 0.0457
In acetonitrile, 330.95 K
  solubility (mole fraction): 0.048
In acetonitrile, 332.75 K
  solubility (mole fraction): 0.0491
In acetonitrile, 334.35 K
  solubility (mole fraction): 0.0504
In n-methylformamide, 294.35 K
  solubility (mole fraction): 0.184
In n-methylformamide, 298.95 K
  solubility (mole fraction): 0.19
In n-methylformamide, 303.35 K
  solubility (mole fraction): 0.196
In n-methylformamide, 307.35 K
  solubility (mole fraction): 0.201
In n-methylformamide, 311.15 K
  solubility (mole fraction): 0.203
In n-methylformamide, 315.35 K
  solubility (mole fraction): 0.207
In n-methylformamide, 318.95 K
  solubility (mole fraction): 0.211
In n-methylformamide, 323.15 K
  solubility (mole fraction): 0.216
In n-methylformamide, 327.95 K
  solubility (mole fraction): 0.221
In n-methylformamide, 334.35 K
  solubility (mole fraction): 0.229
In propionic acid, 298.75 K
  solubility (mole fraction): 0.00308
In propionic acid, 306.65 K
  solubility (mole fraction): 0.00404
In propionic acid, 312.15 K
  solubility (mole fraction): 0.00478
In propionic acid, 316.15 K
  solubility (mole fraction): 0.00524
In propionic acid, 320.65 K
  solubility (mole fraction): 0.00579
In propionic acid, 323.65 K
  solubility (mole fraction): 0.00642
In propionic acid, 327.75 K
  solubility (mole fraction): 0.00704
In propionic acid, 331.35 K
  solubility (mole fraction): 0.0079
In propionic acid, 335.15 K
  solubility (mole fraction): 0.00876
In propionic acid, 338.75 K
  solubility (mole fraction): 0.00983

## Cc1ccccc1C(=O)O
In DMAc, 307.65 K
  solubility (mole fraction): 0.0781
In DMAc, 309.65 K
  solubility (mole fraction): 0.0831
In DMAc, 311.25 K
  solubility (mole fraction): 0.0866
In DMAc, 313.15 K
  solubility (mole fraction): 0.0964
In DMAc, 314.35 K
  solubility (mole fraction): 0.106
In DMAc, 317.65 K
  solubility (mole fraction): 0.121
In DMAc, 320.25 K
  solubility (mole fraction): 0.133
In DMAc, 321.85 K
  solubility (mole fraction): 0.143
In DMAc, 325.25 K
  solubility (mole fraction): 0.168
In DMAc, 327.55 K
  solubility (mole fraction): 0.187
In DMAc, 330.25 K
  solubility (mole fraction): 0.21
In DMAc, 332.65 K
  solubility (mole fraction): 0.231
In DMAc, 334.35 K
  solubility (mole fraction): 0.248
In DMAc, 336.15 K
  solubility (mole fraction): 0.264
In DMAc, 337.35 K
  solubility (mole fraction): 0.28
In DMAc, 338.95 K
  solubility (mole fraction): 0.291
In DMAc, 340.35 K
  solubility (mole fraction): 0.309
In DMAc, 341.15 K
  solubility (mole fraction): 0.327
In DMAc, 342.05 K
  solubility (mole fraction): 0.344
In DMAc, 343.15 K
  solubility (mole fraction): 0.362
In DMAc, 344.35 K
  solubility (mole fraction): 0.384
In DMF, 291.15 K
  solubility (mole fraction): 0.329
In DMF, 295.85 K
  solubility (mole fraction): 0.342
In DMF, 299.95 K
  solubility (mole fraction): 0.357
In DMF, 303.75 K
  solubility (mole fraction): 0.371
In DMF, 307.65 K
  solubility (mole fraction): 0.39
In DMF, 311.55 K
  solubility (mole fraction): 0.407
In DMF, 315.55 K
  solubility (mole fraction): 0.423
In DMF, 319.45 K
  solubility (mole fraction): 0.445
In DMF, 323.15 K
  solubility (mole fraction): 0.461
In DMF, 327.25 K
  solubility (mole fraction): 0.481
In DMF, 331.35 K
  solubility (mole fraction): 0.498
In DMSO, 294.05 K
  solubility (mole fraction): 0.497
In DMSO, 299.65 K
  solubility (mole fraction): 0.514
In DMSO, 302.95 K
  solubility (mole fraction): 0.523
In DMSO, 306.35 K
  solubility (mole fraction): 0.534
In DMSO, 308.35 K
  solubility (mole fraction): 0.537
In DMSO, 310.85 K
  solubility (mole fraction): 0.542
In DMSO, 313.15 K
  solubility (mole fraction): 0.548
In DMSO, 315.15 K
  solubility (mole fraction): 0.557
In DMSO, 319.65 K
  solubility (mole fraction): 0.57
In DMSO, 323.65 K
  solubility (mole fraction): 0.581
In DMSO, 327.65 K
  solubility (mole fraction): 0.591
In DMSO, 330.05 K
  solubility (mole fraction): 0.6
In DMSO, 332.15 K
  solubility (mole fraction): 0.608
In DMSO, 334.55 K
  solubility (mole fraction): 0.617
In NMP, 288.95 K
  solubility (mole fraction): 0.449
In NMP, 292.95 K
  solubility (mole fraction): 0.455
In NMP, 296.95 K
  solubility (mole fraction): 0.471
In NMP, 300.65 K
  solubility (mole fraction): 0.49
In NMP, 304.65 K
  solubility (mole fraction): 0.499
In NMP, 308.65 K
  solubility (mole fraction): 0.51
In NMP, 312.65 K
  solubility (mole fraction): 0.518
In NMP, 316.65 K
  solubility (mole fraction): 0.531
In NMP, 321.35 K
  solubility (mole fraction): 0.542
In NMP, 326.35 K
  solubility (mole fraction): 0.559
In acetonitrile, 299.15 K
  solubility (mole fraction): 0.314
In acetonitrile, 300.25 K
  solubility (mole fraction): 0.316
In acetonitrile, 302.95 K
  solubility (mole fraction): 0.323
In acetonitrile, 305.55 K
  solubility (mole fraction): 0.329
In acetonitrile, 310.65 K
  solubility (mole fraction): 0.34
In acetonitrile, 314.35 K
  solubility (mole fraction): 0.346
In acetonitrile, 315.45 K
  solubility (mole fraction): 0.35
In acetonitrile, 319.25 K
  solubility (mole fraction): 0.36
In acetonitrile, 322.65 K
  solubility (mole fraction): 0.369
In acetonitrile, 325.55 K
  solubility (mole fraction): 0.378
In acetonitrile, 329.15 K
  solubility (mole fraction): 0.386
In acetonitrile, 331.75 K
  solubility (mole fraction): 0.393
In acetonitrile, 335.15 K
  solubility (mole fraction): 0.401
In acetonitrile, 338.15 K
  solubility (mole fraction): 0.409
In n-methylformamide, 294.95 K
  solubility (mole fraction): 0.276
In n-methylformamide, 298.15 K
  solubility (mole fraction): 0.286
In n-methylformamide, 303.65 K
  solubility (mole fraction): 0.303
In n-methylformamide, 307.95 K
  solubility (mole fraction): 0.32
In n-methylformamide, 312.95 K
  solubility (mole fraction): 0.343
In n-methylformamide, 318.05 K
  solubility (mole fraction): 0.365
In n-methylformamide, 322.35 K
  solubility (mole fraction): 0.379
In n-methylformamide, 326.15 K
  solubility (mole fraction): 0.392
In n-methylformamide, 330.15 K
  solubility (mole fraction): 0.407
In n-methylformamide, 334.35 K
  solubility (mole fraction): 0.434
In propionic acid, 296.35 K
  solubility (mole fraction): 0.155
In propionic acid, 300.35 K
  solubility (mole fraction): 0.179
In propionic acid, 303.65 K
  solubility (mole fraction): 0.198
In propionic acid, 307.65 K
  solubility (mole fraction): 0.212
In propionic acid, 311.25 K
  solubility (mole fraction): 0.232
In propionic acid, 314.85 K
  solubility (mole fraction): 0.253
In propionic acid, 318.35 K
  solubility (mole fraction): 0.273
In propionic acid, 322.45 K
  solubility (mole fraction): 0.301
In propionic acid, 326.05 K
  solubility (mole fraction): 0.334
In propionic acid, 330.25 K
  solubility (mole fraction): 0.363
In propionic acid, 334.15 K
  solubility (mole fraction): 0.397
